# Reference: PubChem BioAssay AID1259407 (Chemical Carcinogenesis Research Information System (CCRIS), 2018)
# The source made the active and inactive calls. How the calls were made is not given here.
# Tested on: CCRIS mutagenicity, Ames/micronucleus/aberration tests
# Assay: CCRIS mutagenicity studies
# [1] = Test System: AMES SALMONELLA TYPHIMURIUM, Strain/Indicator: TA98, Metabolic Activation: NONE, Method: STANDARD PLATE
# [2] = Test System: AMES SALMONELLA TYPHIMURIUM, Strain/Indicator: TA98, Metabolic Activation: RAT, LIVER, S-9, AROCLOR 1254, Method: STANDARD PLATE
# [3] = Test System: AMES SALMONELLA TYPHIMURIUM, Strain/Indicator: TA100, Metabolic Activation: NONE, Method: STANDARD PLATE
# [4] = Test System: AMES SALMONELLA TYPHIMURIUM, Strain/Indicator: TA100, Metabolic Activation: RAT, LIVER, S-9, AROCLOR 1254, Method: STANDARD PLATE
# [5] = Test System: AMES SALMONELLA TYPHIMURIUM, Strain/Indicator: TA1535, Metabolic Activation: NONE, Method: STANDARD PLATE
# [6] = Test System: AMES SALMONELLA TYPHIMURIUM, Strain/Indicator: TA1535, Metabolic Activation: RAT, LIVER, S-9, AROCLOR 1254, Method: STANDARD PLATE
# [7] = Test System: AMES SALMONELLA TYPHIMURIUM, Strain/Indicator: TA1537, Metabolic Activation: NONE, Method: STANDARD PLATE
# [8] = Test System: AMES SALMONELLA TYPHIMURIUM, Strain/Indicator: TA1537, Metabolic Activation: RAT, LIVER, S-9, AROCLOR 1254, Method: STANDARD PLATE
smiles,measurement,setting,value
OCCNc1ccc(N=Nc2ccc(NCCO)cc2)cc1,mutagenic call,"Test System: AMES SALMONELLA TYPHIMURIUM, Strain/Indicator: TA98, Metabolic Activation: HAMSTER, LIVER, S-9, AROCLOR 1254, Method: STANDARD PLATE",active; positive
same,mutagenic call,[1],inactive; negative
same,mutagenic call,"Test System: AMES SALMONELLA TYPHIMURIUM, Strain/Indicator: TA98, Metabolic Activation: RAT, LIVER, S-9, AROCLOR 1254, Method: PREINCUBATION",active; positive
same,mutagenic call,[2],active; positive
same,mutagenic call,[3],inactive; negative
same,mutagenic call,[4],inactive; negative
same,mutagenic call,[5],inactive; negative
same,mutagenic call,[6],inactive; negative
same,mutagenic call,[7],inactive; negative
same,mutagenic call,[8],inactive; negative
same,mutagenic call,"Test System: AMES SALMONELLA TYPHIMURIUM, Strain/Indicator: TA1538, Metabolic Activation: NONE, Method: STANDARD PLATE",inactive; negative
same,mutagenic call,"Test System: AMES SALMONELLA TYPHIMURIUM, Strain/Indicator: TA1538, Metabolic Activation: RAT, LIVER, S-9, AROCLOR 1254, Method: STANDARD PLATE",active; positive
COc1ccc(C(=O)c2ccccc2O)c(O)c1,mutagenic call,"Test System: AMES SALMONELLA TYPHIMURIUM, Strain/Indicator: TA98, Metabolic Activation: HAMSTER, LIVER, S-9, AROCLOR 1254 (10%), Method: PREINCUBATION",inactive; negative
same,mutagenic call,"Test System: AMES SALMONELLA TYPHIMURIUM, Strain/Indicator: TA98, Metabolic Activation: NONE, Method: PREINCUBATION",inactive; negative
same,mutagenic call,"Test System: AMES SALMONELLA TYPHIMURIUM, Strain/Indicator: TA98, Metabolic Activation: RAT, LIVER, S-9, AROCLOR 1254 (10%), Method: PREINCUBATION",inactive; negative
same,mutagenic call,"Test System: AMES SALMONELLA TYPHIMURIUM, Strain/Indicator: TA100, Metabolic Activation: HAMSTER, LIVER, S-9, AROCLOR 1254 (10%), Method: PREINCUBATION",inactive; negative
same,mutagenic call,"Test System: AMES SALMONELLA TYPHIMURIUM, Strain/Indicator: TA100, Metabolic Activation: NONE, Method: PREINCUBATION",inactive; negative
same,mutagenic call,"Test System: AMES SALMONELLA TYPHIMURIUM, Strain/Indicator: TA100, Metabolic Activation: RAT, LIVER, S-9, AROCLOR 1254 (10%), Method: PREINCUBATION",inactive; negative
same,mutagenic call,"Test System: AMES SALMONELLA TYPHIMURIUM, Strain/Indicator: TA1535, Metabolic Activation: HAMSTER, LIVER, S-9, AROCLOR 1254 (10%), Method: PREINCUBATION",inactive; negative
same,mutagenic call,"Test System: AMES SALMONELLA TYPHIMURIUM, Strain/Indicator: TA1535, Metabolic Activation: NONE, Method: PREINCUBATION",inactive; negative
same,mutagenic call,"Test System: AMES SALMONELLA TYPHIMURIUM, Strain/Indicator: TA1535, Metabolic Activation: RAT, LIVER, S-9, AROCLOR 1254 (10%), Method: PREINCUBATION",inactive; negative
same,mutagenic call,"Test System: AMES SALMONELLA TYPHIMURIUM, Strain/Indicator: TA1537, Metabolic Activation: HAMSTER, LIVER, S-9, AROCLOR 1254 (10%), Method: PREINCUBATION",active; positive
same,mutagenic call,"Test System: AMES SALMONELLA TYPHIMURIUM, Strain/Indicator: TA1537, Metabolic Activation: NONE, Method: PREINCUBATION",inactive; negative
same,mutagenic call,"Test System: AMES SALMONELLA TYPHIMURIUM, Strain/Indicator: TA1537, Metabolic Activation: RAT, LIVER, S-9, AROCLOR 1254 (10%), Method: PREINCUBATION",active; positive
COc1cc(C[C@H]2COC(=O)[C@@H]2Cc2ccc(O)c(OC)c2)ccc1O,mutagenic call,"Test System: CHINESE HAMSTER V79 CELLS, Strain/Indicator: V79 CELLS (HPRT)/6-THIOGUANINE, Metabolic Activation: NONE, Method: SUSPENSION/PLATE",inactive; negative
same,mutagenic call,"Test System: CHINESE HAMSTER V-79, Strain/Indicator: V-79(HPRT)/THIOGUANINE, Metabolic Activation: NONE",inactive; negative
CCC[CH2][Sn]=[O],mutagenic call,"Test System: AMES SALMONELLA TYPHIMURIUM, Strain/Indicator: TA98, Metabolic Activation: NONE, Method: SUSPENSION/PLATE",inactive; negative
same,mutagenic call,"Test System: AMES SALMONELLA TYPHIMURIUM, Strain/Indicator: TA100, Metabolic Activation: NONE, Method: SUSPENSION/PLATE",inactive; negative
Nc1ccn([C@@H]2O[C@H](COP(=O)(O)O)[C@@H](O)[C@H]2O)c(=O)n1,mutagenic call,"Test System: AMES SALMONELLA TYPHIMURIUM, Strain/Indicator: TA97, Metabolic Activation: NONE, Method: PREINCUBATION",inactive; negative
same,mutagenic call,"Test System: AMES SALMONELLA TYPHIMURIUM, Strain/Indicator: TA97, Metabolic Activation: RAT, LIVER, S-9, AROCLOR 1254, Method: PREINCUBATION",inactive; negative
same,mutagenic call,"Test System: AMES SALMONELLA TYPHIMURIUM, Strain/Indicator: TA102, Metabolic Activation: NONE, Method: PREINCUBATION",inactive; negative
same,mutagenic call,"Test System: AMES SALMONELLA TYPHIMURIUM, Strain/Indicator: TA102, Metabolic Activation: RAT, LIVER, S-9, AROCLOR 1254, Method: PREINCUBATION",inactive; negative
COc1cc(-c2cc(=O)c3c(O)cc(O)cc3o2)ccc1O,mutagenic call,"Test System: Ames Salmonella typhimurium, Strain/Indicator: TA98, Metabolic Activation: None, Method: Standard plate",inactive; negative
same,mutagenic call,"Test System: Ames Salmonella typhimurium, Strain/Indicator: TA98, Metabolic Activation: Rat, Liver, S-9, Aroclor 1254, Method: Standard plate",inactive; negative
O=c1c(Cl)c(Cl)cnn1S(=O)(=O)c1ccc(Cl)cc1Cl,mutagenic call,[1],inactive; negative
same,mutagenic call,[2],inactive; negative
same,mutagenic call,[3],inactive; negative
same,mutagenic call,[4],inactive; negative
same,mutagenic call,[5],inactive; negative
same,mutagenic call,[6],inactive; negative
same,mutagenic call,[7],inactive; negative
same,mutagenic call,[8],inactive; negative
